# Assay results reported in patent publication US5591741A, “Fungicidal spiroheterocyclic derivatives” (American Cyanamid Company, priority 1993, dated 1997).
# Key:
# [1] = test system: Plasmopara viticola; test: Antisporulant activity against vine downy mildew (PVA); type: in vivo; conditions: vine leaves, antisporulant foliar spray, 600 ppm, 750 l/ha
# Summary of the method: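 Cabernet Sauvignon vines (~8 cm) inoculated on lower leaf surfaces with 5×10^4 zoosporangia/ml, held 24 h at 21° C high humidity then 24 h glasshouse. Infected leaves sprayed underside with 600 ppm compound in 1:1 water/acetone, 0.04% Tween 20, 750 l/ha; 96 h glasshouse, 24 h humidity. Sporulating leaf area rated versus control.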
# [2] = test system: Alternaria solani; test: Activity against tomato early blight (AS); type: in vivo; conditions: Table VI; tomato seedlings, contact prophylactic foliar spray, 4 days
# Summary of the method: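 Plants were challenged with A. solani conidia (10^4 spores/ml) 24 h after a protective foliar spray of compound in 50:50 acetone/water plus 0.04% Tween 20. Held humid at 21° C for 4 days, then percent leaf area with lesions was scored as a rating relative to controls.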
# [3] = test system: Botrytis cinerea; test: Direct protectant activity against broad bean grey mould (BCB); type: in vivo; conditions: direct protectant foliar spray, 600 ppm, 4 days
# Summary of the method: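 Protectant foliar test: lesion coverage assessed 4 days after inoculation and rated relative to untreated or diluent-sprayed plants. Compound applied at 600 ppm to cv The Sutton leaves 24 h before 10^6 conidia/ml suspension; incubation at 22 °C in high humidity.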
# [4] = test system: Leptosphaeria nodorum; test: Activity against wheat leafspot (LN); type: in vivo; conditions: direct therapeutic foliar spray, 600 ppm, 6-8 days
# Summary of the method: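 Therapeutic foliar spray: compound at 600 ppm applied to single-leaf wheat (cv Norman) 24 h after inoculation with 1.5×10^6 conidia/ml. Disease control scored after 6-8 days at 22° C and 70% humidity as lesions per leaf versus untreated or diluent-sprayed controls.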
# [5] = test system: Erysiphe graminis f.sp. hordei; test: Activity against barley powdery mildew, direct therapeutic (EGT); type: in vivo; conditions: direct therapeutic foliar spray, 600 ppm, up to 7 days
# Summary of the method: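 A curative spray at 600 ppm was applied to single-leaf Golden Promise barley inoculated with powdery mildew conidia the previous day. After up to 7 days at 18 °C and 40% humidity, disease control was rated from percent leaf area sporulating relative to untreated or diluent-sprayed controls.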
# [6] = test system: Erysiphe graminis f.sp. hordei; test: Direct protectant activity against barley powdery mildew (EGP); type: in vivo; conditions: direct protectant foliar spray, 8 days
# Summary of the method: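 Rating reflects percentage of leaf area with sporulation compared with untreated or diluent-sprayed controls. Protectant spray was applied to single-leaf barley (cv Golden Promise) 24 h before conidia inoculation. Plants were kept at 18 °C and 40% RH throughout, with 8 days of disease development.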
# [7] = test system: Phytophthora infestans; type: in vivo; conditions: tomato, direct protectant foliar spray
# [8] = test system: Pseudocercosporella herpotrichoides; test: Activity against wheat eyespot in-vitro (PHI); type: cell-based; conditions: 10 ppm, 10 days, 20° C., mycelial growth
# Summary of the method: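 Mycelial growth was scored after 10 days at 20 °C against untreated or diluent controls. The broth was half-strength potato dextrose, holding 10 ppm test compound (from acetone) and 5×10^4 fragments/ml of the eyespot fungus.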
# [9] = test system: Rhizoctonia solani; test: Activity against Rhizoctonia in-vitro (RSI); type: cell-based; conditions: 10 ppm, 10 days, 20° C., mycelial growth
# Summary of the method: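 Compound at a final 10 ppm (acetone vehicle) in half-strength PDB, inoculated with 5×10^4 fragments/ml of shaken-culture R. solani mycelium. After incubation at 20° C for 10 days, growth scored as a rating versus untreated or diluent-treated controls.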
# [10] = test system: Venturia inaequalis; test: Activity against apple scab in-vitro (VII); type: cell-based; conditions: 10 ppm, 10 days, 20° C., mycelial growth
# Summary of the method: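 V. inaequalis propagules (5×10^4/ml, malt agar-grown) were exposed in half-strength PDB to 10 ppm final test compound delivered in acetone. Growth was scored after incubation for 10 days at 20° C, as a rating relative to untreated or diluent-sprayed controls.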
# [11] = test system: Pyricularia oryzae; type: in vivo; conditions: rice seedlings, direct therapeutic foliar spray, 600 ppm, 4-5 days
Compound,disease control rating PVA [1],disease control rating AS [2],disease control rating BCB [3],disease control rating LN [4],disease control rating EGT [5],disease control rating EGP [6],disease control rating PIP [7],disease control rating PHI [8],disease control rating RSI [9],disease control rating VII [10],disease control rating PO [11]
CCCCCN(C(C)C)C1COC2(CCC(C(C)(C)C)CC2)C1 (stereo not shown) [Compound 76],0 (less than 50% disease control),0 (less than 50% disease control),0 (less than 50% disease control),0 (less than 50% disease control),2 (greater than 80% disease control),2 (greater than 80% disease control),0 (less than 50% disease control),0 (less than 50% disease control),0 (less than 50% disease control),0 (less than 50% disease control),0 (less than 50% disease control)
CCCCCN(C1CCCCC1)C1COC2(CCC(C(C)(C)C)CC2)C1 (stereo not shown) [Compound 77],0 (less than 50% disease control),0 (less than 50% disease control),0 (less than 50% disease control),0 (less than 50% disease control),2 (greater than 80% disease control),2 (greater than 80% disease control),0 (less than 50% disease control),0 (less than 50% disease control),0 (less than 50% disease control),0 (less than 50% disease control),0 (less than 50% disease control)
CCCCCN(C)C1COC2(CCC(C(C)(C)C)CC2)C1 (stereo not shown) [Compound 78],0 (less than 50% disease control),0 (less than 50% disease control),1 (about 50-80% disease control),0 (less than 50% disease control),2 (greater than 80% disease control),2 (greater than 80% disease control),0 (less than 50% disease control),0 (less than 50% disease control),0 (less than 50% disease control),0 (less than 50% disease control),0 (less than 50% disease control)
C=CCN(C1CCCCC1)C1COC2(CCC(C(C)(C)C)CC2)C1 (stereo not shown) [Compound 79],0 (less than 50% disease control),0 (less than 50% disease control),1 (about 50-80% disease control),0 (less than 50% disease control),2 (greater than 80% disease control),2 (greater than 80% disease control),2 (greater than 80% disease control),0 (less than 50% disease control),0 (less than 50% disease control),0 (less than 50% disease control),0 (less than 50% disease control)
CN(C1CCCCC1)C1COC2(CCC(C(C)(C)C)CC2)C1 (stereo not shown) [Compound 80],0 (less than 50% disease control),0 (less than 50% disease control),1 (about 50-80% disease control),1 (about 50-80% disease control),2 (greater than 80% disease control),2 (greater than 80% disease control),2 (greater than 80% disease control),0 (less than 50% disease control),1 (about 50-80% disease control),0 (less than 50% disease control),1 (about 50-80% disease control)
CC(C)(C)NC1COC2(CCC(C(C)(C)C)CC2)C1 (stereo not shown) [Compound 81],0 (less than 50% disease control),0 (less than 50% disease control),2 (greater than 80% disease control),0 (less than 50% disease control),2 (greater than 80% disease control),2 (greater than 80% disease control),2 (greater than 80% disease control),0 (less than 50% disease control),0 (less than 50% disease control),0 (less than 50% disease control),0 (less than 50% disease control)
CC(C)(C)C1CCC2(CC1)CC(NCC1CCCCC1)CO2 (stereo not shown) [Compound 82],0 (less than 50% disease control),0 (less than 50% disease control),2 (greater than 80% disease control),1 (about 50-80% disease control),2 (greater than 80% disease control),2 (greater than 80% disease control),0 (less than 50% disease control),0 (less than 50% disease control),0 (less than 50% disease control),0 (less than 50% disease control),0 (less than 50% disease control)
CCC(CC)NC1COC2(CCC(C(C)(C)C)CC2)C1 (stereo not shown) [Compound 83],0 (less than 50% disease control),0 (less than 50% disease control),1 (about 50-80% disease control),0 (less than 50% disease control),2 (greater than 80% disease control),2 (greater than 80% disease control),0 (less than 50% disease control),0 (less than 50% disease control),0 (less than 50% disease control),0 (less than 50% disease control),0 (less than 50% disease control)
